Consider eight molecules from PubChem BioAssay (NCI).

The structures appear in SMILES notation.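 Interpolation was linear, between the two tested concentrations surrounding the appropriate level; five concentrations were tested over 48 hours in 96-well plates. TGI marks complete inhibition of growth.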

Among the test systems are HCC-2998 colon; K-562 leukemia; NCI-H226 lung; BT-549 breast; SF-295 CNS; UO-31 renal; NCI-H23 lung; RPMI-8226 leukemia; U251 CNS; SF-268 CNS; SF-539 CNS; 786-0 renal; IGROV1 ovarian; SK-OV-3 ovarian; UACC-257 melanoma; NCI/ADR-RES ovarian; MALME-3M melanoma; OVCAR-8 ovarian; HL-60(TB) leukemia; HS 578T breast.
Holding throughout (test): NCI tumour cell line growth inhibition, 48 h

`O=C1Nc2ccccc2[C@]12C[C@H]2c1ccccn1`: the TGI with HCC-2998 colon, in the assay with K-562 leukemia, in the assay with NCI-H226 lung, in the assay with BT-549 breast, in the assay on SF-295 CNS and in the assay on UO-31 renal was over 100 µM in each case. The TGI in the assay with NCI-H23 lung, in the assay on RPMI-8226 leukemia, in the assay on U251 CNS, with SF-268 CNS, in the assay on SF-539 CNS and in the assay with 786-0 renal was over 100 µM throughout. The TGI with IGROV1 ovarian, in the assay with SK-OV-3 ovarian, with UACC-257 melanoma, with NCI/ADR-RES ovarian and in the assay with MALME-3M melanoma was over 100 µM in each case.
On to `C=C(C)[C@@H]1CC[C@@H](C)[C@](O)([C@@H]2C[C@@H]([C@H](COC(=O)c3ccccc3)OC(=O)c3ccccc3)OC2=O)C1`, for which the TGI in the assay with HCC-2998 colon, in the assay with K-562 leukemia, with NCI-H226 lung, in the assay on BT-549 breast, in the assay with OVCAR-8 ovarian and in the assay with SF-295 CNS was over 100 µM in each case. Also, the TGI with UO-31 renal, with NCI-H23 lung, with RPMI-8226 leukemia, with U251 CNS, with SF-268 CNS and in the assay on SF-539 CNS was over 100 µM throughout. The TGI in the assay with 786-0 renal, in the assay with IGROV1 ovarian, with SK-OV-3 ovarian, in the assay with UACC-257 melanoma, in the assay with NCI/ADR-RES ovarian and with MALME-3M melanoma was over 100 µM in each case.
Take `CC1(C)C=[N+]([O-])C(C)(C)N1`: the TGI in the assay on HCC-2998 colon, in the assay on K-562 leukemia, in the assay with NCI-H226 lung, with HL-60(TB) leukemia, in the assay with OVCAR-8 ovarian and in the assay with SF-295 CNS was over 100 µM in each case. For the same molecule, the TGI in the assay with UO-31 renal, with NCI-H23 lung, in the assay with RPMI-8226 leukemia, in the assay with U251 CNS, in the assay with SF-268 CNS and in the assay with SF-539 CNS was over 100 µM in each case. Besides, the TGI in the assay with 786-0 renal, in the assay with HS 578T breast, with IGROV1 ovarian, in the assay with SK-OV-3 ovarian, in the assay with UACC-257 melanoma and in the assay on NCI/ADR-RES ovarian was over 100 µM in each case. This molecule also showed a TGI in the assay on MALME-3M melanoma of over 100 µM.
For the molecule `COc1ccc2c(c1)N(C(C)=O)CN1C(=O)CCC21` (stereo not drawn), the TGI in the assay on HCC-2998 colon, in the assay with K-562 leukemia, with NCI-H226 lung, with HL-60(TB) leukemia, in the assay with OVCAR-8 ovarian and with SF-295 CNS was over 100 µM in each case. Moreover, the TGI in the assay with UO-31 renal, in the assay on NCI-H23 lung, in the assay with RPMI-8226 leukemia, in the assay with U251 CNS, in the assay with SF-268 CNS and in the assay on SF-539 CNS was over 100 µM throughout. Moreover, the TGI in the assay with 786-0 renal, in the assay with HS 578T breast, in the assay on IGROV1 ovarian, in the assay on SK-OV-3 ovarian, in the assay with UACC-257 melanoma and in the assay on NCI/ADR-RES ovarian was over 100 µM each time. This molecule also yielded a TGI in the assay with MALME-3M melanoma of over 100 µM.
For the molecule `NC(=O)C(=CN1C(=O)CC(=O)NC1=S)C(N)=O`, the TGI in the assay with HCC-2998 colon, with NCI-H226 lung, with BT-549 breast, in the assay on HL-60(TB) leukemia, in the assay on OVCAR-8 ovarian and with SF-295 CNS was over 100 µM each time. The TGI with UO-31 renal, in the assay with NCI-H23 lung, in the assay with U251 CNS, in the assay with SF-268 CNS, with SF-539 CNS and in the assay on 786-0 renal was over 100 µM throughout. The TGI in the assay with IGROV1 ovarian, in the assay on SK-OV-3 ovarian, in the assay on UACC-257 melanoma and with NCI/ADR-RES ovarian was over 100 µM each time.
Consider `CC1=CCC[C@@](C)(O)[C@@H]2C[C@H]3C(CSc4ccccc4)C(=O)O[C@H]3[C@@H](O2)[C@H](C)CCC1` (stereo partly drawn), for which the TGI was 30.3 µM with HCC-2998 colon; over 100 µM in the assay with K-562 leukemia; 46.2 µM in the assay on BT-549 breast; over 100 µM in the assay on HL-60(TB) leukemia; 32.4 µM in the assay on OVCAR-8 ovarian; 25.3 µM in the assay on SF-295 CNS. For the same molecule, the TGI was 24.1 µM in the assay with UO-31 renal; 33.8 µM in the assay with NCI-H23 lung; 84 µM in the assay on RPMI-8226 leukemia; 66.8 µM with U251 CNS; over 100 µM in the assay with SF-268 CNS; 30.9 µM in the assay with SF-539 CNS. The TGI stood at 67.5 µM in the assay on 786-0 renal; 56.4 µM in the assay on HS 578T breast; 85.1 µM in the assay on IGROV1 ovarian; 37.9 µM with SK-OV-3 ovarian; 39.3 µM with UACC-257 melanoma; 32.1 µM with MALME-3M melanoma.
For the molecule `CC1(C)C=C(/C=N/Nc2ccc(Br)cc2)C(C#N)=C(O)C1(C#N)C#N`, the TGI is over 100 µM with HCC-2998 colon; over 100 µM in the assay with K-562 leukemia; over 100 µM in the assay on NCI-H226 lung; 88.1 µM in the assay on HL-60(TB) leukemia; over 100 µM with OVCAR-8 ovarian; over 100 µM with SF-295 CNS. The TGI in the assay on UO-31 renal is 86 µM; in the assay with NCI-H23 lung, over 100 µM; in the assay with RPMI-8226 leukemia, over 100 µM; with SF-268 CNS it was over 100 µM; with SF-539 CNS, over 100 µM; with 786-0 renal, over 100 µM. Further, the TGI in the assay on HS 578T breast, with IGROV1 ovarian, with SK-OV-3 ovarian, in the assay with UACC-257 melanoma, with NCI/ADR-RES ovarian and in the assay on MALME-3M melanoma was over 100 µM in each case.
For `NC1=CC(C(=O)c2ccncc2)c2nc3ccccc3nc21` (stereo not drawn), the TGI in the assay with HCC-2998 colon, in the assay on NCI-H226 lung, with BT-549 breast, in the assay with OVCAR-8 ovarian, in the assay on SF-295 CNS and in the assay with UO-31 renal was over 100 µM throughout. In addition, the TGI in the assay on NCI-H23 lung, in the assay on RPMI-8226 leukemia, in the assay on U251 CNS, in the assay with SF-268 CNS, with SF-539 CNS and in the assay with 786-0 renal was over 100 µM throughout. In addition, the TGI in the assay with HS 578T breast, with IGROV1 ovarian, in the assay with SK-OV-3 ovarian, in the assay on UACC-257 melanoma, in the assay on NCI/ADR-RES ovarian and in the assay on MALME-3M melanoma was over 100 µM throughout.
